From patent publication US20250346606A1, “CAMPTOTHECIN COMPOUND, PREPARATION METHOD THEREFOR, AND APPLICATION THEREOF” (SICHUAN KELUN-BIOTECH BIOPHARMACEUTICAL CO., LTD., priority 2021, published 2025)
Where two headings read alike, the source gives them in different places.

Tests used:
Format in all cases: cell-based, Human
[1] = test system: MDA-MB-231 cells; test: Inhibitory effect of compounds on MDA-MB-231 cell proliferation; settings: read-out: IC50, inhibitory activity on MDA-MB-231 cell proliferation
Experimental: (1) Cell plating: First, tumor cells MDA-MB-231 were cultured in corresponding medium, then digested with trypsin, centrifuged, resuspended, and counted, and the cells were adjusted to an appropriate concentration for plating.
(§1) Co-incubation of the compound of the present disclosure and tumor cells: after the cells adhered to the wall, the medium was removed, and the diluted bioactive molecule (the compound of the present disclosure) was added to the wells of the above plate, and incubated for 72 h.
(§2) In vitro cell viability detection: After the incubation, 50 μL of Cell Counting-Lite™ 2.0 reagent (Vazyme/Novazyme) was added to each well, shaken and mixed well in the dark, reacted for 10 minutes, and then the detection was carried out with a microplate reader (manufacturer: BMG, Model: PHERAStar-FS) for reading. The background RLU was obtained by using cell-free medium (with Cell Counting-Lite™), and the vehicle RLU was obtained by using cell-containing medium (with Cell Counting-Lite™). Cell inhibition rate=1−(sample RLU−background RLU)/(solvent RLU−background RLU)×100%. According to the four-parameter model fitting curve, the half maximal inhibitory concentration (IC50) of the compound was calculated, and the detection results were shown in Table 18.

[2] = test system: HT29 cells; test: Inhibitory effect of compounds on HT29 cell proliferation; settings: read-out: IC50, inhibitory activity on HT29 cell proliferation
Experimental: (1) Cell plating: First, tumor cells HT29 were cultured in corresponding medium, then digested with trypsin, centrifuged, resuspended, and counted, and the cells were adjusted to an appropriate concentration for plating.
as §1
as §2, with “2.” for “18.”

[3] = test system: NCI-N87 cells; test: Inhibitory effect of compounds on NCI-N87 cell proliferation
Experimental: (1) Cell plating: First, tumor cells NCI-N87 were cultured in corresponding medium, then digested with trypsin, centrifuged, resuspended, and counted, and the cells were adjusted to an appropriate concentration for plating.
as §1
as §2, with “12.” for “18.”

[4] = test system: Jeko-1 cells; test: Inhibitory effect of compounds on Jeko-1 cell proliferation; settings: read-out: IC50, inhibitory activity on Jeko-1 cell proliferation
Experimental: (1) Cell plating: First, tumor cells Jeko-1 were cultured in corresponding medium, then digested with trypsin, centrifuged, resuspended, and counted, and the cells were adjusted to an appropriate concentration for plating.
as §1
as §2, with “20.” for “18.”

[5] = test system: Hela cells; test: Inhibitory effect of compounds on Hela cell proliferation; settings: Homo sapiens, HeLa, 72 h, read-out: IC50, inhibitory activity on Hela cell proliferation
Experimental: (1) Cell plating: First, tumor cells Hela were cultured in corresponding medium, then digested with trypsin, centrifuged, resuspended, and counted, and the cells were adjusted to an appropriate concentration for plating.
as §1
as §2, with “14.” for “18.”

[6] = test system: NCI-H358 cells; test: Inhibitory effect of compounds on NCI-H358 cell proliferation; settings: Homo sapiens, NCI-H358, 72 h, read-out: IC50, inhibitory activity on NCI-H358 cell proliferation, NCI-H358 human non-small cell lung cancer cells, 72 h incubation, Cell Counting-Lite 2.0
Experimental: (1) Cell plating: First, tumor cells NCI-H358 were cultured in corresponding medium, then digested with trypsin, centrifuged, resuspended, and counted, and the cells were adjusted to an appropriate concentration for plating.
as §1
as §2, with “10.” for “18.”

[7] = test system: A549 cells; test: Inhibitory effect of compounds on A549 cell proliferation; settings: Homo sapiens, A549, 72 h, read-out: IC50, inhibitory activity on A549 cell proliferation
Experimental: (1) Cell plating: First, tumor cells A549 were cultured in the corresponding medium, then digested with trypsin, centrifuged and resuspended, and counted, and the cells were adjusted to an appropriate concentration for plating.
as §1
as §2, with “activity” for “viability”, “4.” for “18.”

Row | Structure (SMILES) | IC50 ([1]; Homo sapiens, MDA-MB-231, 72 h) [nM] | IC50 ([2]; Homo sapiens, HT-29, 72 h) [nM] | also measured
1 | CC[C@@]1(O)C(=O)OCc2c1cc1n(c2=O)Cc2c-1nc1cc(F)c(C)c3c1c2[C@@H](NC(=O)[C@@H](O)CN(C)C)CC3 (single isomer, unassigned) [Example 20 (1-10-B)] | 27.2 | 10.3 | 
2 | CC[C@@]1(O)C(=O)OCc2c1cc1n(c2=O)Cc2c-1nc1cc(F)c(C)c3c1c2[C@H](CN)CC3 (single isomer, unassigned) [Example 13 (5-7-B)] | 172 | 4.66 | IC50 ([3]; Homo sapiens, NCI-N87, 72 h, read-out: IC50, inhibitory activity on NCI-N87 cell proliferation, NCI-N87 human gastric cancer cells, 72 h incubation, Cell Counting-Lite 2.0): 7.31 nM; IC50 ([4]; Homo sapiens, JeKo-1, 72 h): 0.18 nM
3 | CC#C[C@H](O)C(=O)N[C@H]1CCc2c(C)c(F)cc3nc4c(c1c23)Cn1c-4cc2c(c1=O)COC(=O)[C@]2(O)CC [Example 1 (1-1-B), (S)—N-((1S,9S)-9-ethyl-5-fluoro-9-hydroxy-4-methyl-10,13-dioxo-2,3,9,10,13,15-hexahydro-1H,12H-benzo[de]pyrano[3′,4′:6,7]indolizino[1,2-b]quinolin-1-yl)-2-hydroxypent-3-yneamide] |  | 1.54 | IC50 [5]: 3.65 nM
4 | CC[C@@]1(O)C(=O)OCc2c1cc1n(c2=O)Cc2c-1nc1cc(F)c(Cl)c3c1c2[C@@H](NC(=O)CO)CC3 [Example 9 (3-4-A), N-((1S,9S)-4-Chloro-9-ethyl-5-fluoro-9-hydroxy-10,13-dioxo-2,3,9,10,13,15-hexahydro-1H, 12H-benzo[de]pyrano[3′,4:6,7]indolizino[1,2-b]quinolin-1-yl)-2-hydroxyacetamide] |  |  | IC50 ([3]; NCI-N87 human gastric cancer cells, 72 h incubation, Cell Counting-Lite 2.0, read-out: IC50, inhibitory activity on NCI-N87 cell proliferation): 4.38 nM; IC50 ([1]; MDA-MB-231 human breast cancer cells, 72 h incubation, Cell Counting-Lite 2.0): 285 nM; IC50 ([4]; Jeko-1 human mantle cell lymphoma cells, 72 h incubation, Cell Counting-Lite 2.0): 0.27 nM; IC50 ([2]; HT29 human colon cancer cells, 72 h incubation, Cell Counting-Lite 2.0): 5.55 nM
5 | CC[C@@]1(O)C(=O)OCc2c1cc1n(c2=O)Cc2c-1nc1cc(F)c(C)c3c1c2[C@@H](NC(=O)[C@H](O)CN(C)C)CC3 (single isomer, unassigned) [Example 20 (1-10-A)] | 97.6 | 61.6 | 
6 | CC[C@@]1(O)C(=O)OCc2c1cc1n(c2=O)Cc2c-1nc1cc3c(cc1c2CCNCCOC)OCO3 [Example 22 (4-15), (S)-7-Ethyl-7-hydroxy-14-(2-((2-methoxyethyl)amino)ethyl)-7H-[1,3]dioxolano[4,5-g]pyrano[3′,4′:6,7]indolizino[1,2-b]quinolin-8,11 (10H,13H)-dione] | 175 | 5.2 | IC50 [6]: 17.8 nM; IC50 ([4]; Homo sapiens, JeKo-1, 72 h): 0.11 nM
7 | CC[C@@]1(O)C(=O)OCc2c1cc1n(c2=O)Cc2c-1nc1cc(Cl)c(C)c3c1c2[C@H](NC(=O)C1(O)CC1)CC3 [Example 7 (2-20-B), N-((1R,9S)-5-chloro-9-ethyl-9-hydroxy-4-methyl-10,13-dioxo-2,3,9,10,13,15-hexahydro-1H,12H-benzo[de]pyrano[3′,4′:6,7]indolizino[1,2-b]quinolin-1-yl)-1-hydroxycyclopropane-1-carboxamide] |  | 4.03 | IC50 [7]: 23.1 nM
